Reference: patent US20080317857A1, “V-Atpase Inhibitors of Use in the Treatment of Septic Shock” (Brane Discovery S.r.l., priority 2005, published 2008)

Tests used:
Monocytes [1] = experiment: Chemoattractant-induced rapid adhesion of monocytes to fibrinogen; assay type: cell-based; settings: Homo sapiens, Monocyte, read-out: Inhibition of Adhesion (%) Monocytes (fMLP)
Procedure: Adhesion was performed on purified integrin ligands and was evaluated as reported in Constantin G. et al., Immunity, 16, 759-769, 2000. Briefly, primary naïve lymphocytes, polymorphonuclear neutrophils (PMNs) or monocytes were isolated form healthy donors. In other experiments, murine autoreactive T cells were obtained from SJL mice immunized with PLP139-151 as described (Piccio L. et al., J. Immunol. 168, 1940-1949, 2002). Cells were resuspended at 4×10^6/ml in PBS, CaCl2, MgCl2 1 mM, 10% FCS, pH 7.2. Adhesion assays were performed on eighteen well glass slides coated overnight at 4° C. with ligands for CR3 (fibrinogen) or LFA-1 (ICAM-1). 20 μl of cell suspension were added to the wells and stimulated at 37° C. with 5 μl of agonists prior to washing, fixation and computer-assisted enumeration of bound cells.
Integrin activation was measured as induction of rapid adhesion triggered by the classical chemoattractant N-formyl-L-methionyl-L-leucyl-phenylalanine (fMLP) (100 nM) or by the CC chemokine MIP3β (CCL19, 1 μM). PMNs and monocytes were triggered to adhere to fibrinogen (CR3 ligand); naive human lymphocytes or murine encephalitogenic T cells were triggered to adhere to ICAM-1 (LFA-1 ligand). Triggered adhesion was evaluated after 2 min of stimulation under static conditions. The cells were pretreated at 37° C. for 30-60 min with the indicated concentrations of the test compound. Results are expressed as percentage of inhibition over control (=100%) and are the mean of three experiments in the case of human leukocytes. Results are expressed as mean counts and are the mean counts±S.D of three experiments and are the mean of three experiments in the case of murine encephalitogenic lymphocytes.

PMNs = experiment: Chemotaxis assay, PMNs (transwell); assay type: cell-based; settings: Homo sapiens
Procedure: (§1) PMNs and monocytes migration was assessed using 1 or 3-μm pore size transwells (Bio-Coat Becton-Dickinson), while lymphocytes by using 5-μm pore size transwells.
(§2) Cells were in RPMI1640, containing 10% heat-inactivated Fetal Calf Serum (FCS) and 20 mM HEPES, pH 7.3, at 2×10^6/ml. 100 μl of cell suspension were added to the top well, and 600 μl of medium, containing chemoaftractants and test compound, were added to the bottom well. Migration was evaluated after 2 h for PMNs and monocytes and after 4 h for lymphocytes. fMLP 10 nM (PMNs and monocytes) and MIP-3β 100 nM (lymphocytes) were utilized as chemoattractants. After fixation with 1.5% glutaraldehyde, migrated cells were counted by fluorescence-activated cell sorting using polystyrene beads (Polyscience) as an internal standard (Campbell J. J. et al. J. Cell. Biol. 134, 255-266, 1996; Laudanna C. et al. J. Biol. Chem. 273, 46, 30306-30315, 1998).
(§3) Results are expressed as percentage of inhibition over control (=100%), and are the mean of three experiments.

Lymphocytes = experiment: Chemotaxis assay, lymphocytes (transwell); assay type: cell-based; settings: Homo sapiens, Lymphocyte
Procedure: as §1, §2, §3

Monocytes [2] = experiment: Chemotaxis assay, monocytes (transwell); assay type: cell-based; settings: Homo sapiens, Monocyte
Procedure: as §1, §2, §3

[3] = test system: endotoxic shock induced by LPS in C57BI/6 male mice; experiment: Septic shock animal model (LPS-induced endotoxic shock), survival; assay type: in vivo
From the text: The model is represented by endotoxic shock, the most common type of septic shock in humans.
The septic shock has been induced in 8-10 week-old C57BI/6 male mice (Harlan-Nossan laboratories) by high concentrations of LPS (lipopolysaccharide), that is considered a reliable experimental model for human endotoxic shock (Garrido et al., Acta Chir. Bras., 19, 2004).
LPS from Escherichia coli 0127:B7 (Sigma) was solubilized in PBS containing 2% fetal calf serum (FCS) as a source of “LPS binding protein”, a molecule that increases the endotoxin action. Mice received 37.5 mg/kg LPS/endotoxin intraperitoneally (i.p.). Animals (ten/group) were monitored at least four times daily and survival of animals was determined in control and treated mice (Lowell C. A. et al., PNAS 95, 7580, 1998).
In the preventive study (FIG. 3), control mice received only vehicle, while treated mice received 70 mg/kg i.p. of Compound of Example 1 two hours before the administration of LPS.
In the therapeutic study (FIG. 4), control mice received only vehicle, while treated mice received both 70 mg/kg i.p. of Compound of Example 1 (3 hours after LPS administration) and 10 mg/kg i.v. (intravenously) (12 hours after LPS administration).

For `COC(=O)c1[nH]c2cc(OC)c(OC)cc2c1-c1ccc(OC)cc1` [Example 1], the inhibition at 2.5 µM (Monocytes [1]; [cpd] 2.5 μM) was less than 5%, the inhibition at 5 µM (Monocytes [1]; [cpd] 5 μM) was less than 5% and the inhibition at 10 µM (Monocytes [1]; [cpd] 10 μM) was less than 5%. For the same compound, the inhibition at 25 µM (Monocytes [1]; [cpd] 25 μM) was less than 5%, the inhibition at 50 µM (Monocytes [1]; [cpd] 50 μM) was less than 5% and the inhibition at 100 µM (Monocytes [1]; [cpd] 100 μM) was less than 5%. For the same compound, the inhibition at 2.5 µM (PMNs; [cpd] 2.5 μM, read-out: Inhibition of Chemotaxis (%) PMNs (fMLP)) was 14.6%, the inhibition at 5 µM (PMNs; [cpd] 5 μM, read-out: Inhibition of Chemotaxis (%) PMNs (fMLP) (converted)) was 28.2% and the inhibition at 10 µM (PMNs; [cpd] 10 μM, read-out: Inhibition of Chemotaxis (%) PMNs (fMLP) (converted)) was 34%. The inhibition at 25 µM (PMNs; [cpd] 25 μM, read-out: Inhibition of Chemotaxis (%) PMNs (fMLP) (converted)) was 40.6%, the inhibition at 50 µM (PMNs; [cpd] 50 μM, read-out: Inhibition of Chemotaxis (%) PMNs (fMLP)) was 46.4% and the inhibition at 100 µM (PMNs; [cpd] 100 μM, read-out: Inhibition of Chemotaxis (%) PMNs (fMLP) (converted)) was 62.6%. For the same compound, the inhibition at 2.5 µM (Lymphocytes; [cpd] 2.5 μM, read-out: Inhibition of Chemotaxis (%) Lymphocytes (MIP3-β)) was 11.6%, the inhibition at 5 µM (Lymphocytes; [cpd] 5 μM, read-out: Inhibition of Chemotaxis (%) Lymphocytes (MIP3-β) (converted)) was 27.2% and the inhibition at 10 µM (Lymphocytes; [cpd] 10 μM, read-out: Inhibition of Chemotaxis (%) Lymphocytes (MIP3-β) (converted)) was 43.2%. For the same compound, the inhibition at 25 µM (Lymphocytes; [cpd] 25 μM, read-out: Inhibition of Chemotaxis (%) Lymphocytes (MIP3-β) (converted)) was 53.3%, the inhibition at 50 µM (Lymphocytes; [cpd] 50 μM, read-out: Inhibition of Chemotaxis (%) Lymphocytes (MIP3-β) (converted)) was 63.5% and the inhibition at 100 µM (Lymphocytes; [cpd] 100 μM, read-out: Inhibition of Chemotaxis (%) Lymphocytes (MIP3-β) (converted)) was 86.9%. For the same compound, the inhibition at 2.5 µM (Monocytes [2]; [cpd] 2.5 μM, read-out: Inhibition of Chemotaxis (%) Monocytes (fMLP)) was 10.5%, the inhibition at 5 µM (Monocytes [2]; [cpd] 5 μM, read-out: Inhibition of Chemotaxis (%) Monocytes (fMLP) (converted)) was 15.5% and the inhibition at 10 µM (Monocytes [2]; [cpd] 10 μM, read-out: Inhibition of Chemotaxis (%) Monocytes (fMLP) (converted)) was 18.3%. The inhibition at 25 µM (Monocytes [2]; [cpd] 25 μM, read-out: Inhibition of Chemotaxis (%) Monocytes (fMLP) (converted)) was 47.4%, the inhibition at 50 µM (Monocytes [2]; [cpd] 50 μM, read-out: Inhibition of Chemotaxis (%) Monocytes (fMLP) (converted)) was 46.3% and the inhibition at 100 µM (Monocytes [2]; [cpd] 100 μM, read-out: Inhibition of Chemotaxis (%) Monocytes (fMLP) (converted)) was 75.5%. For the same compound, the “survival, therapeutic study” value ([3]; 70 mg/kg i.p. 3 hours and 10 mg/kg i.v. 12 hours after LPS, at 52 hours, control survival 0%) was 40%, the “mortality, preventive study” value ([3]; 70 mg/kg i.p. two hours before LPS, at 90 hours, control mortality 100%) was 20% and the “survival, preventive study” value ([3]; 70 mg/kg i.p. two hours before LPS, at 90 hours, control survival 0%) was 80%.
